The values below are quoted from earlier work in paper PMC8583936, “Machine Learning Assisted Approach for Finding Novel High Activity Agonists of Human Ectopic Olfactory Receptors” (International Journal of Molecular Sciences, 2021).

Read-outs that look alike come from different tables or passages of the source.

The target in series [1] is T1, OR1A1 (Homo sapiens, UniProt Q9P1Q5).
T1 sequence (Q9P1Q5 1-309): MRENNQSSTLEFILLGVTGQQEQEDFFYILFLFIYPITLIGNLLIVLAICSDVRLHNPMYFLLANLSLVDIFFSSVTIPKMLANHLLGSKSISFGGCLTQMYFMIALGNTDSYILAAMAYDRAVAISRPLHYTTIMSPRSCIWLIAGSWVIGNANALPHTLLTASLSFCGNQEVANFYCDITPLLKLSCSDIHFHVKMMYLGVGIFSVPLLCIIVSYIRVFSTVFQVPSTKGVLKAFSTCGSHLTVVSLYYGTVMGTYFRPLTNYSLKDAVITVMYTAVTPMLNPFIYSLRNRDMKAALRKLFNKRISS
Particulars: cited from earlier work.

Series [2] has as its target T2, OR2W1 (Homo sapiens, UniProt Q9Y3N9).
T2 sequence (Q9Y3N9 1-320): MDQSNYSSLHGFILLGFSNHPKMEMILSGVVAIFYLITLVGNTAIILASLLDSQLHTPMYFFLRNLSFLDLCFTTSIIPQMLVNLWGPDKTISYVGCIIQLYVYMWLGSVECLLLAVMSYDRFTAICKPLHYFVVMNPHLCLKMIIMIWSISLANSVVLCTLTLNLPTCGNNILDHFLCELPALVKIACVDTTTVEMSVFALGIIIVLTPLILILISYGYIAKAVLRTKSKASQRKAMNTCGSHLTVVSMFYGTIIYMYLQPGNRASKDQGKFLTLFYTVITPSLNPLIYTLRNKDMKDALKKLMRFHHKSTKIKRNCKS
Conditions: cited from earlier work.

[3] abbreviates: Table S1, ref Supplement references [1]-[9] as printed after each odorant name.
Setting [4] is: Table S2, ref Supplement references [2]-[12] as printed after each odorant name.

On to `CCCC(=O)OCC` [Ethyl butyrate], for which the “Class (agonist / non-agonist / conflicting info.) for OR1A1” value in series [1] (setting [3]) is given as “Non-agonist”. In series [2] (setting [4]), the “Class (agonist / non-agonist / antagonist / conflicting info.) for OR2W1” value is “Non-agonist”.

Consider `C/C=C/C(=O)C(C)CC` (stereo not drawn) [Filbertone], for which the “Class (agonist / non-agonist / conflicting info.) for OR1A1” value in series [1] (setting [3]) is given as “Non-agonist”. For the same compound, in series [2] (setting [4]), the “Class (agonist / non-agonist / antagonist / conflicting info.) for OR2W1” value is recorded as “Non-agonist”.

On to (-)-Fenchone, for which the “Class (agonist / non-agonist / conflicting info.) for OR1A1” value in series [1] (setting [3]) was “Non-agonist”. Also, in series [2] (setting [4]), the “Class (agonist / non-agonist / antagonist / conflicting info.) for OR2W1” value is “Non-agonist”.

In the case of `CCCC(O)CC(=O)OCC` (stereo not drawn) [Ethyl 3-hydroxyhexanoate], the “Class (agonist / non-agonist / conflicting info.) for OR1A1” value in series [1] (setting [3]) is on record as “Non-agonist”. In series [2] (setting [4]), the “Class (agonist / non-agonist / antagonist / conflicting info.) for OR2W1” value is “Non-agonist”.

Take `CCCCCCC(=O)OCCCC` [Butyl heptanoate]: the “Class (agonist / non-agonist / conflicting info.) for OR1A1” value in series [1] (setting [3]) is given as “Non-agonist”. The “Class (agonist / non-agonist / antagonist / conflicting info.) for OR2W1” value in series [2] (setting [4]) is listed as “Non-agonist”.

(-)-alpha-Terpineol: in series [1] (setting [3]), the “Class (agonist / non-agonist / conflicting info.) for OR1A1” value is “Non-agonist”. The “Class (agonist / non-agonist / antagonist / conflicting info.) for OR2W1” value in series [2] (setting [4]) was “Non-agonist”.

Take `CCOC(=O)CC(C)C` [Ethyl isovalerate]: the “Class (agonist / non-agonist / conflicting info.) for OR1A1” value in series [1] (setting [3]) is listed as “Non-agonist”. The “Class (agonist / non-agonist / antagonist / conflicting info.) for OR2W1” value in series [2] (setting [4]) is listed as “Non-agonist”.

In the case of `O=C(O)CS` [Thioglycolic acid], the “Class (agonist / non-agonist / conflicting info.) for OR1A1” value in series [1] (setting [3]) is “Non-agonist”. Besides, the “Class (agonist / non-agonist / antagonist / conflicting info.) for OR2W1” value in series [2] (setting [4]) is “Non-agonist”.

For `CCOC(=O)c1ccccc1` [Ethyl benzoate], in series [1], the “Class (agonist / non-agonist / conflicting info.) for OR1A1” value was “Non-agonist”. In series [2], the “Class (agonist / non-agonist / antagonist / conflicting info.) for OR2W1” value is “Non-agonist”.

As for `CCCCC[C@H](C)O` [(+)-2-heptanol], the “Class (agonist / non-agonist / conflicting info.) for OR1A1” value in series [1] (setting [3]) is “Non-agonist”. Moreover, the “Class (agonist / non-agonist / antagonist / conflicting info.) for OR2W1” value in series [2] (setting [4]) is given as “Non-agonist”.

As to `CCC(C)C=O` (stereo not drawn) [2-methylbutyraldehyde], the “Class (agonist / non-agonist / conflicting info.) for OR1A1” value in series [1] (setting [3]) was “Non-agonist”. The “Class (agonist / non-agonist / antagonist / conflicting info.) for OR2W1” value in series [2] (setting [4]) is given as “Non-agonist”.

As to `CC(C=O)Cc1ccc2c(c1)OCO2` (stereo not drawn) [Helional], in series [1], the “Class (agonist / non-agonist / conflicting info.) for OR1A1” value is “Agonist”. In addition, in series [2], the “Class (agonist / non-agonist / antagonist / conflicting info.) for OR2W1” value is on record as “Agonist”.

Take `CC(C)=CC1CC(C)CCO1` (stereo not drawn) [Rose oxide]: the “Class (agonist / non-agonist / conflicting info.) for OR1A1” value in series [1] (setting [3]) is listed as “Non-agonist”. The “Class (agonist / non-agonist / antagonist / conflicting info.) for OR2W1” value in series [2] (setting [4]) was “Non-agonist”.

Take `CCCCC(C)CCC(=O)O` (stereo not drawn) [4-Methyloctanoic acid]: in series [1] (setting [3]), the “Class (agonist / non-agonist / conflicting info.) for OR1A1” value is listed as “Non-agonist”. Also, the “Class (agonist / non-agonist / antagonist / conflicting info.) for OR2W1” value in series [2] (setting [4]) is reported as “Non-agonist”.

With `CCCSSCCC` [Propyl disulfide], the “Class (agonist / non-agonist / conflicting info.) for OR1A1” value in series [1] (setting [3]) is on record as “Non-agonist”. Further, in series [2] (setting [4]), the “Class (agonist / non-agonist / antagonist / conflicting info.) for OR2W1” value is “Non-agonist”.

Consider `CCCC(=O)C(C)=O` [2,3-hexanedione], for which the “Class (agonist / non-agonist / conflicting info.) for OR1A1” value in series [1] (setting [3]) is “Non-agonist”. The “Class (agonist / non-agonist / antagonist / conflicting info.) for OR2W1” value in series [2] (setting [4]) is on record as “Agonist”.

For `CCC1OC(=O)C(O)=C1C` (stereo not drawn) [5-Ethyl-3-hydroxy-4-methylfuran-2(5H)-one], in series [1] (setting [3]), the “Class (agonist / non-agonist / conflicting info.) for OR1A1” value is listed as “Non-agonist”. In addition, in series [2] (setting [4]), the “Class (agonist / non-agonist / antagonist / conflicting info.) for OR2W1” value is “Non-agonist”.

In the case of `CC1=CCC(C(C)(C)S)CC1` (stereo not drawn) [1-p-Menthene-8-thiol], the “Class (agonist / non-agonist / conflicting info.) for OR1A1” value in series [1] (setting [3]) is on record as “Non-agonist”. Further, the “Class (agonist / non-agonist / antagonist / conflicting info.) for OR2W1” value in series [2] (setting [4]) was “Non-agonist”.

For `CCCCCOC(C)=O` [N-amyl acetate], in series [1] (setting [3]), the “Class (agonist / non-agonist / conflicting info.) for OR1A1” value was “Non-agonist”. Further, the “Class (agonist / non-agonist / antagonist / conflicting info.) for OR2W1” value in series [2] (setting [4]) is on record as “Agonist”.

Take `CCC(S)C(C)=O` (stereo not drawn) [3-Mercapto-2-pentanone]: the “Class (agonist / non-agonist / conflicting info.) for OR1A1” value in series [1] (setting [3]) is listed as “Non-agonist”. For the same compound, the “Class (agonist / non-agonist / antagonist / conflicting info.) for OR2W1” value in series [2] (setting [4]) is listed as “Non-agonist”.

Turning to `CCCCCCCCCCO` [1-decanol], the “Class (agonist / non-agonist / conflicting info.) for OR1A1” value in series [1] (setting [3]) was “Agonist”. Besides, the “Class (agonist / non-agonist / antagonist / conflicting info.) for OR2W1” value in series [2] (setting [4]) was “Agonist”.
